# In ChEMBL document CHEMBL1131081, “Beta-amino-thiols inhibit the zinc metallopeptidase activity of tetanus toxin light chain” (J Med Chem, 1998):
# Test: Binding affinity against S1 subsite of the Tetanus neurotoxin (TeNt)
# Design: species or system Clostridium tetani
row,Structure (SMILES),Ki
1,NC(CS)c1cccc(S(N)(=O)=O)c1 (stereo unspecified),35 µM
2,NCC(CS)CCS(=O)(=O)O (stereo unspecified),500 µM
3,NC(CS)c1cccc(S(=O)(=O)O)c1 (stereo unspecified),40 µM
4,CN(C)C(=O)c1cccc(C(N)CS)c1 (stereo unspecified),250 µM
5,NC(=O)c1cccc(C(N)CS)c1 (stereo unspecified),125 µM
6,NC(CS)CCS(N)(=O)=O (stereo unspecified),100 µM
